# Assay results from article PMC10482975 (Nature Communications, 2023).
# Residue numbers refer to the chain shown, from its start.
# How the values were obtained:
# M3 mAChR WT = target: T1, M3 mAChR WT (Homo sapiens, UniProt P20309); experiment: [3H]-NMS radioligand dissociation binding, M3 mAChR WT
# T1 construct: expressed in transfected cells
# Procedure: (§1) Flp-In Chinese hamster ovary (CHO) (Thermo Fisher Scientific) cells stably expressing mAChR WTs or mutant constructs were cultured in Dulbecco’s modified Eagle’s medium (DMEM, Invitrogen) containing 5% foetal bovine serum (FBS; ThermoTrace) and […] of hygromycin (Roche) in a humidified incubator (37 °C, 5% CO2). Upon reaching confluence, media was removed, cells were washed with phosphate buffered saline (PBS) and harvested from tissue culture flasks using versene (PBS with 0.2 g EDTA). Cells were then pelleted through centrifugation at 350 × g for three minutes followed by resuspension in DMEM + 5% FBS. Cells were then either plated for an assay or reseeded into a tissue culture flask.
# M4 mAChR WT = target: T2, M4 mAChR WT (Homo sapiens, UniProt P08173); experiment: [3H]-NMS radioligand dissociation binding, M4 mAChR WT; settings: for [3H]-NMS binding remaining (0 min = 100), MEAN: M4 mAChR
# T2 construct: expressed in transfected cells
# T2 sequence (P08173 1-479): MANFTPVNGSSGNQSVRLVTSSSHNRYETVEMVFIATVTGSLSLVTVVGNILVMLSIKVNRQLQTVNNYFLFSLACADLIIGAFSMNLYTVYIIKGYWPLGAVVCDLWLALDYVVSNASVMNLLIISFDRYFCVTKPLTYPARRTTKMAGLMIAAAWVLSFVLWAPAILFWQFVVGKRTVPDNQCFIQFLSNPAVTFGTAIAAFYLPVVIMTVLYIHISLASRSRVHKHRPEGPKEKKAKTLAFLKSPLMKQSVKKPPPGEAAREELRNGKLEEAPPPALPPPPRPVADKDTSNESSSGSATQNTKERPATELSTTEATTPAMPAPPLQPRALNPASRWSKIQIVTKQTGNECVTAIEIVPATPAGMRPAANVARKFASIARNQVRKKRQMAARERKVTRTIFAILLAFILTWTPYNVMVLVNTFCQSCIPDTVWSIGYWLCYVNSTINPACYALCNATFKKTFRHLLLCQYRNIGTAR
# Procedure: as §1
# M5 mAChR WT = target: T3, M5 mAChR WT (Homo sapiens, UniProt P08912); experiment: [3H]-NMS radioligand dissociation binding, M5 mAChR WT
# T3 construct: expressed in transfected cells
# T3 sequence (P08912 1-532): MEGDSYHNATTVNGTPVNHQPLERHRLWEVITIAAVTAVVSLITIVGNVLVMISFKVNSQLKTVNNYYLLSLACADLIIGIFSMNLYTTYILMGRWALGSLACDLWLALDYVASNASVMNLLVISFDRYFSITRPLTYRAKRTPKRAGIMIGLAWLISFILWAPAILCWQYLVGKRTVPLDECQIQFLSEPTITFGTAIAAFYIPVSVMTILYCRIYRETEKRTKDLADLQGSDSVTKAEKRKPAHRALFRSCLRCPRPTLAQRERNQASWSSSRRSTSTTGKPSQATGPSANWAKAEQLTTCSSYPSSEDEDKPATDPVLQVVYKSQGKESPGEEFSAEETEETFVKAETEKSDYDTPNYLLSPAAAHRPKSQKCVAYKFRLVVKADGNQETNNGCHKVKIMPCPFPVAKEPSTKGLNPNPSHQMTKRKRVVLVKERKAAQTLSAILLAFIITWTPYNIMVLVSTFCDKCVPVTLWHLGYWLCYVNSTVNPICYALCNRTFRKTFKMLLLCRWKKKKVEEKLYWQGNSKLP
# Procedure: as §1
# M4 mAChR F186A = target: T4, M4 mAChR F186A (Homo sapiens, UniProt P08173, F186A); experiment: [3H]-NMS radioligand dissociation binding, M4 mAChR F186A; settings: for [3H]-NMS binding remaining (0 min = 100), MEAN: M4 F186A mAChR
# T4 construct: expressed in transfected cells
# T4 sequence (P08173 1-479 F186A): T2 sequence (P08173 1-479) with F186A
# Procedure: as §1
# T1 sequence (P20309 whole entry): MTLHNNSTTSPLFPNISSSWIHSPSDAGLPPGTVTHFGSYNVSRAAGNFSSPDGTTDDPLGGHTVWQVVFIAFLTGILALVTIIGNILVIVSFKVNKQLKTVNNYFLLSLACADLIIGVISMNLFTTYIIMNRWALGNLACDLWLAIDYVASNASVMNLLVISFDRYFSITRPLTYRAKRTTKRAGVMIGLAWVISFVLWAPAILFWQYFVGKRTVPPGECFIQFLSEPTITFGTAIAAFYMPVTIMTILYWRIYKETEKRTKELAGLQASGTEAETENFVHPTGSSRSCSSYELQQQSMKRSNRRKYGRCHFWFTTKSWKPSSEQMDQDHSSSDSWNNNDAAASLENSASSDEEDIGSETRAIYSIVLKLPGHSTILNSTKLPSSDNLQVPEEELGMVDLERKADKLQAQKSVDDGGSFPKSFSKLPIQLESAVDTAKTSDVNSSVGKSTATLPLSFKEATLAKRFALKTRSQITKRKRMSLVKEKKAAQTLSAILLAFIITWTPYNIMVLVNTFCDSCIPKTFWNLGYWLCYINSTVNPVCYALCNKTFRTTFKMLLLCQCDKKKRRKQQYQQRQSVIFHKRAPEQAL
structure (smiles),measurement,setting,value
CCCCCCOc1nsnc1C1=CCCN(C)C1 [xanomeline],IC50,M3 mAChR WT,182 µM
same,allosteric effect on [3H]-NMS dissociation (in words),M3 mAChR WT; M3 mAChR,modest
same,"[3H]-NMS binding remaining (0 min = 100), MEAN","M3 mAChR WT; M3 mAChR, 10uM Atr + 10 μM Xano, 10 min",102.824
same,"[3H]-NMS binding remaining (0 min = 100), MEAN","M3 mAChR WT; M3 mAChR, 10uM Atr + 10 μM Xano, 15 min",94.4472
same,"[3H]-NMS binding remaining (0 min = 100), MEAN","M3 mAChR WT; M3 mAChR, 10uM Atr + 10 μM Xano, 30 min",84.3079
same,"[3H]-NMS binding remaining (0 min = 100), MEAN","M3 mAChR WT; M3 mAChR, 10uM Atr + 10 μM Xano, 90 min",53.078
same,"[3H]-NMS binding remaining (0 min = 100), MEAN","M3 mAChR WT; M3 mAChR, 10uM Atr + 10 μM Xano, 120 min",40.5004
same,"[3H]-NMS binding remaining (0 min = 100), MEAN","M3 mAChR WT; M3 mAChR, 10uM Atr + 10 μM Xano, 210 min",20.6349
same,"[3H]-NMS binding remaining (0 min = 100), MEAN","M3 mAChR WT; M3 mAChR, 10uM Atr + 30 μM Xano, 10 min",103.273
same,"[3H]-NMS binding remaining (0 min = 100), MEAN","M3 mAChR WT; M3 mAChR, 10uM Atr + 30 μM Xano, 15 min",95.5713
same,"[3H]-NMS binding remaining (0 min = 100), MEAN","M3 mAChR WT; M3 mAChR, 10uM Atr + 30 μM Xano, 30 min",87.9383
same,"[3H]-NMS binding remaining (0 min = 100), MEAN","M3 mAChR WT; M3 mAChR, 10uM Atr + 30 μM Xano, 90 min",53.4947
same,"[3H]-NMS binding remaining (0 min = 100), MEAN","M3 mAChR WT; M3 mAChR, 10uM Atr + 30 μM Xano, 120 min",41.606
same,"[3H]-NMS binding remaining (0 min = 100), MEAN","M3 mAChR WT; M3 mAChR, 10uM Atr + 30 μM Xano, 210 min",24.8398
same,"[3H]-NMS binding remaining (0 min = 100), MEAN","M3 mAChR WT; M3 mAChR, 10uM Atr + 100uM Xano, 10 min",100.762
same,"[3H]-NMS binding remaining (0 min = 100), MEAN","M3 mAChR WT; M3 mAChR, 10uM Atr + 100uM Xano, 15 min",94.0238
same,"[3H]-NMS binding remaining (0 min = 100), MEAN","M3 mAChR WT; M3 mAChR, 10uM Atr + 100uM Xano, 30 min",90.7523
same,"[3H]-NMS binding remaining (0 min = 100), MEAN","M3 mAChR WT; M3 mAChR, 10uM Atr + 100uM Xano, 90 min",62.8848
same,"[3H]-NMS binding remaining (0 min = 100), MEAN","M3 mAChR WT; M3 mAChR, 10uM Atr + 100uM Xano, 120 min",45.8052
same,"[3H]-NMS binding remaining (0 min = 100), MEAN","M3 mAChR WT; M3 mAChR, 10uM Atr + 100uM Xano, 210 min",29.7551
same,"[3H]-NMS binding remaining (0 min = 100), MEAN","M4 mAChR WT; 10uM Atr + 10 μM Xano, 30 min",87.1248
same,"[3H]-NMS binding remaining (0 min = 100), MEAN","M4 mAChR WT; 10uM Atr + 10 μM Xano, 90 min",63.7927
same,"[3H]-NMS binding remaining (0 min = 100), MEAN","M4 mAChR WT; 10uM Atr + 10 μM Xano, 180 min",32.9493
same,"[3H]-NMS binding remaining (0 min = 100), MEAN","M4 mAChR WT; 10uM Atr + 10 μM Xano, 300 min",16.1247
same,"[3H]-NMS binding remaining (0 min = 100), MEAN","M4 mAChR WT; 10uM Atr + 30 μM Xano, 30 min",96.6093
same,"[3H]-NMS binding remaining (0 min = 100), MEAN","M4 mAChR WT; 10uM Atr + 30 μM Xano, 90 min",68.5782
same,"[3H]-NMS binding remaining (0 min = 100), MEAN","M4 mAChR WT; 10uM Atr + 30 μM Xano, 180 min",42.1853
same,"[3H]-NMS binding remaining (0 min = 100), MEAN","M4 mAChR WT; 10uM Atr + 30 μM Xano, 300 min",23.6351
same,"[3H]-NMS binding remaining (0 min = 100), MEAN","M4 mAChR WT; 10uM Atr + 100uM Xano, 30 min",97.9496
same,"[3H]-NMS binding remaining (0 min = 100), MEAN","M4 mAChR WT; 10uM Atr + 100uM Xano, 60 min",79.6399
same,"[3H]-NMS binding remaining (0 min = 100), MEAN","M4 mAChR WT; 10uM Atr + 100uM Xano, 180 min",54.7449
same,"[3H]-NMS binding remaining (0 min = 100), MEAN","M4 mAChR WT; 10uM Atr + 100uM Xano, 300 min",34.2485
same,effect on [3H]-NMS dissociation (in words),"M4 mAChR WT; wild-type M4 mAChR, increasing concentrations of xanomeline, saturating concentration of iperoxo",progressively slowed
same,allosteric effect on [3H]-NMS dissociation (in words),M5 mAChR WT,modest
same,"[3H]-NMS binding remaining (0 min = 100), MEAN","M5 mAChR WT; 10uM Atr + 10 μM Xano, 10 min",90.3151
same,"[3H]-NMS binding remaining (0 min = 100), MEAN","M5 mAChR WT; 10uM Atr + 10 μM Xano, 15 min",91.7238
same,"[3H]-NMS binding remaining (0 min = 100), MEAN","M5 mAChR WT; 10uM Atr + 10 μM Xano, 30 min",85.9775
same,"[3H]-NMS binding remaining (0 min = 100), MEAN","M5 mAChR WT; 10uM Atr + 10 μM Xano, 90 min",67.8458
same,"[3H]-NMS binding remaining (0 min = 100), MEAN","M5 mAChR WT; 10uM Atr + 10 μM Xano, 120 min",51.752
same,"[3H]-NMS binding remaining (0 min = 100), MEAN","M5 mAChR WT; 10uM Atr + 10 μM Xano, 210 min",35.86
same,"[3H]-NMS binding remaining (0 min = 100), MEAN","M5 mAChR WT; 10uM Atr + 30 μM Xano, 10 min",92.3387
same,"[3H]-NMS binding remaining (0 min = 100), MEAN","M5 mAChR WT; 10uM Atr + 30 μM Xano, 15 min",85.7238
same,"[3H]-NMS binding remaining (0 min = 100), MEAN","M5 mAChR WT; 10uM Atr + 30 μM Xano, 30 min",100.331
same,"[3H]-NMS binding remaining (0 min = 100), MEAN","M5 mAChR WT; 10uM Atr + 30 μM Xano, 90 min",61.0136
same,"[3H]-NMS binding remaining (0 min = 100), MEAN","M5 mAChR WT; 10uM Atr + 30 μM Xano, 120 min",51.9105
same,"[3H]-NMS binding remaining (0 min = 100), MEAN","M5 mAChR WT; 10uM Atr + 30 μM Xano, 210 min",31.039
same,"[3H]-NMS binding remaining (0 min = 100), MEAN","M5 mAChR WT; 10uM Atr + 100uM Xano, 10 min",94.3264
same,"[3H]-NMS binding remaining (0 min = 100), MEAN","M5 mAChR WT; 10uM Atr + 100uM Xano, 15 min",90.317
same,"[3H]-NMS binding remaining (0 min = 100), MEAN","M5 mAChR WT; 10uM Atr + 100uM Xano, 30 min",106.159
same,"[3H]-NMS binding remaining (0 min = 100), MEAN","M5 mAChR WT; 10uM Atr + 100uM Xano, 90 min",76.4682
same,"[3H]-NMS binding remaining (0 min = 100), MEAN","M5 mAChR WT; 10uM Atr + 100uM Xano, 120 min",67.0445
same,"[3H]-NMS binding remaining (0 min = 100), MEAN","M5 mAChR WT; 10uM Atr + 100uM Xano, 210 min",42.1563
same,"[3H]-NMS binding remaining (0 min = 100), MEAN","M4 mAChR F186A; 10uM Atr + 30 μM Xano, 30 min",78.1603
same,"[3H]-NMS binding remaining (0 min = 100), MEAN","M4 mAChR F186A; 10uM Atr + 30 μM Xano, 90 min",48.8248
same,"[3H]-NMS binding remaining (0 min = 100), MEAN","M4 mAChR F186A; 10uM Atr + 30 μM Xano, 180 min",47.3729
same,"[3H]-NMS binding remaining (0 min = 100), MEAN","M4 mAChR F186A; 10uM Atr + 100uM Xano, 30 min",72.0364
same,"[3H]-NMS binding remaining (0 min = 100), MEAN","M4 mAChR F186A; 10uM Atr + 100uM Xano, 90 min",60.4086
same,"[3H]-NMS binding remaining (0 min = 100), MEAN","M4 mAChR F186A; 10uM Atr + 100uM Xano, 180 min",46.0676
same,"[3H]-NMS binding remaining (0 min = 100), MEAN","M4 mAChR F186A; 10uM Atr + 100uM Xano, 300 min",23.3758
same,effect on [3H]-NMS dissociation (in words),M4 mAChR F186A; M4 mAChR F186A mutant,no longer retarded
